According to patent US11401303B2, “Synthetic peptide BRAP and application in preparation of anti-inflammatory drug for COVID-19 thereof” (TAIAN CITY QIHANG BIOTECHNOLOGY CO., priority 2020, dated 2022):
Ends that are not written are not given here.

Columns and labels:
[1] = target: T1, Bradykinin B1 receptor (Homo sapiens, UniProt P46663); assay type: cell-based
T1 construct: host or cells: HEK293/Gα15/B1
T1 sequence (P46663 1-353): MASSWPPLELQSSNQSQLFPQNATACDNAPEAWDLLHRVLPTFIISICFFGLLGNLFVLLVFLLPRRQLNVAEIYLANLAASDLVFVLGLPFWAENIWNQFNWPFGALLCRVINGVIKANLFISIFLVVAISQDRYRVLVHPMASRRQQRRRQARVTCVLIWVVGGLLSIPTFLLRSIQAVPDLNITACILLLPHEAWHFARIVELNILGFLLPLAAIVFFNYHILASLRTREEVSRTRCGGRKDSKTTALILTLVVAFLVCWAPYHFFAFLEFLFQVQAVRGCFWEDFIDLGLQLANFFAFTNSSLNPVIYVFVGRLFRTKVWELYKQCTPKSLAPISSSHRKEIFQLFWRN

[2] = system: OVA-induced allergic rhinitis; assay: Rat allergic nasal inflammation (OVA-induced allergic rhinitis), intranasal administration; assay type: in vivo, SD rat; settings: bilateral nasal cavities 50 μL/side, 4 weeks
Protocol: SD rat modeling: two stages of intraperitoneal injection for sensitization and intranasal dripping for stimulation. Ovalbumin was injected intraperitoneally, and 1 mg ovalbumin (V-class Sigma, USA) was dissolved in 1 ml normal saline, and 30 mg of aluminum hydroxide was added as an immunologic adjuvant. Each rat was intraperitoneally injected 1 ml ovalbumin suspension prepared above with 1 ml/time every other day and for 7 times in total; and stimulated intranasally with ovalbumin on the 15th day; 20 mg ovalbumin (V-class Sigma, USA) were dissolved in 1 ml normal saline to be prepared into a 2% solution; and the 2% ovalbumin solution was used for stimulation by nasal dripping; and 50 ul nasal drips were administered in each of the nasal cavities of each rat for 7 consecutive days.
Blank control group: 30 mg of aluminum hydroxide+1 ml of normal saline were mixed evenly, and then injected intraperitoneally; and the method was the same as the above.
Normal saline was dripped into nasal cavities on the 15th day.
After the final nasal dripping was performed, each rat was observed and evaluated according to a scoring table: Sneezing, nose scratching, gasping and nasal secretions
1. Administration way: a drug was administered with a micro-sampling gun, bilateral nasal cavities of a rat were administered with 50 μL/side, after being administered for 20 min, a 2% ovalbumin solution was administered to bilateral nasal cavities of the rat; 50 μL/side nasal dripping was administered for provocation; the above treatment was performed for 4 consecutive weeks to observe the pharmacodynamic effect.
High-dose synthetic peptide brap: a synthetic peptide brap freeze-dried powder (5 mg/bottle) was taken, and 1.63 ml sterile saline solution was added for dissolving;
medium-dose synthetic peptide brap: a synthetic peptide brap freeze-dried powder (5 mg/bottle) was taken, and 4.89 ml sterile saline solution was added for dissolving;
low-dose synthetic peptide brap: a synthetic peptide brap freeze-dried powder (5 mg/bottle) was taken, and 14.67 ml sterile saline solution was added for dissolving;

[3] = system: endotoxin; assay: Endotoxin content in blood of LPS-induced mice (LAL kit); assay type: in vivo, Balb/C mice; settings: low, medium and high dose (4, 8, 16 mg/kgBW i.v.); 6 h after LPS 5 mg/kg BW i.p.; dose-response relationship
Protocol: The detection was performed according to the specification of the endotoxin test LAL (Limulus Amebocyte Lysate) kit:
(1) anticoagulant venous blood of each group of mice constructed in example 9 was taken and centrifuged for 2 min at 3000 rpm/min; 100 ul supernate was taken and added to a 0.9 ml sample treating fluid;
(2) the above sample was put in a 70° C. dry-heat sterilization box for 10 min, then cooled by running water;
(3) concentration gradient of an endotoxin standard was 1.0, 0.5, 0.25 and 0.1 EU/ml;
(4) several endotoxin-free test tubes were taken, and 100 ul water for detecting bacterial endotoxin, an endotoxin standard and a test product were added respectively;
(6) 100 ul TAL solution was added, mixed evenly, and covered by a silver paper, and incubated for 10 min at 37° C.;
(7) 100 ul developing-matrix solution was added, mixed evenly, and incubated for 6 min at 37° C.;
(8) 500 ul azo reagent 1 was added and mixed evenly;
(9) 500 ul azo reagent 2 was added and mixed evenly;
(10) 500 ul azo reagent 3 was added, mixed evenly, standing for 5 min;
(11) OD value was measured at 545 nm.

[4] = system: ROS; assay: ROS fluorescence intensity in lung tissue of LPS-induced mice by flow cytometry; assay type: in vivo, Balb/C mice
Protocol: 1. About 100 mg fresh left lung tissue from each group of mice constructed in example 9 was taken and washed for three times with PBS to remove blood;
2. the tissue was put in a nylon net, ground by a grinding rod, and washed by PBS;
3. a cell suspension was collected, and filtered by a 200-mesh sieve to remove tissue blocks;
4. the cell suspension was collected and centrifuged for 5 min at 1000 rpm/min;
5. cellular supernatant was removed and PBS was added for resuspending;
6. 10 μmol/L DCFH-DA was prepared with a serum-free culture solution;
7. cells were centrifuged to remove PBS, and the above probe diluent was added to make the cell concentration being 10^6/ml;
8. the cells were incubated for 30 min at 37° C., and shaken off for once every 3 min;
9. the cells were centrifuged for 5 min at 1000 rpm/min, and cell precipitates were resuspended on a serum-free culture medium;
10. step 9 was repeated for twice;
11. 500 μL PBS was added to resuspend cells, and flow cytometry was used to detect mean fluorescence intensity.

[5] = Limit test on intravenous injection at 2000 mg/kg BW dose level; assay type: in vivo, Konmin mouse
Protocol: I. Test Animal (Subject): Konmin Mouse: Healthy, Adult, Male, Weight≤20 g, and n=5 pcs
III. Administration Route and Dose: 2000 mg/kg BW was Injected Via a Tail Vein
Administration capacity: the maximum injection capacity of the mice tail vein was 0.5 ml/once, slow injection
Dose and mode of administration: 40 mg/1.5 ml working solution was administered for 3 times within 9 h.
1) a test substance (synthetic peptide brap) having a dose of 2000 mg/kg was injected to the first Konmin mouse via tail vein;
2) whether of causing toxic responses (initial symptom, starting time, namely, time period after administration, severity and duration) was observed and recorded;
3) if the animal died, the response before being at death's door and the occurrence time of death were recorded.

[6] = target: Bradykinin B2 receptor (Homo sapiens, UniProt P30411); assay: cell-based
[7] = 2000 mg/kg BW via tail vein in 3 injections, individual mouse

Chain of Bradykinin B2 receptor (P30411 whole entry): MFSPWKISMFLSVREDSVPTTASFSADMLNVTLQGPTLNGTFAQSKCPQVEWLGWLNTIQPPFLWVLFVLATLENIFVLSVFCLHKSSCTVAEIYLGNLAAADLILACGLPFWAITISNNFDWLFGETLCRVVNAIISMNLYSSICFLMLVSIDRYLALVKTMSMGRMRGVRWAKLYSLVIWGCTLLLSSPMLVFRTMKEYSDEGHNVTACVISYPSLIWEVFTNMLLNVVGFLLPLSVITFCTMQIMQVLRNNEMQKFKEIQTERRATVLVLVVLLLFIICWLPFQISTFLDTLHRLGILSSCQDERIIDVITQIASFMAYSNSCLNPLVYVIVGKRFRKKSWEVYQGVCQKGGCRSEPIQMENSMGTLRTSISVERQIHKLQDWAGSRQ

Sequence: RVLNGPEAPA [brap]
- Effect of compound acting together with EC10 and EC20 [1]: no obvious effect
- Inhibitory activity on B1 receptor activation by EC80 irritant [1]: obviously inhibited
- Scoring change before and after treatment ([2]; all dose groups of the peptide, continued OVA provocation): decreases
- Allergic rhinitis symptom scoring compared with the model group ([2]; high, medium and low dose, significant difference): can improve the OVA-induced allergic rhinitis symptoms
- Blood endotoxin level compared with the model group [3]: obviously below that in the model group
- ROS content in lung tissues ([4]; induced by LPS for 6 h): obviously reducing the increase in ROS content
- ROS content in lung tissue ([4]; induced by LPS for 12 h): obviously reducing the increase in ROS content
- ROS content in lung tissues ([4]; intranasal administration, LPS-induced mice): reducing the overly increased ROS content
- ROS content in lung tissues ([4]; intravenous injection, LPS-induced mice): obviously decreases the overly increased ROS content
- Death situation/survival animals, 72 h after administering [5, 7]: No death
- Toxic response manifestation [5, 7]: No abnormal
- Toxicity in the limit test ([5]; intravenous injection of 2000 mg/kg BW, mice n=5): no toxicity was found
- LD50 at 9 h ([5]; male, Konmin, in vivo, 2000 mg/kg BW, intravenous, mouse, judgment rule if survival animals ≥3 (5 of 5 survived)): > 2000 mg/kg
- IC50 [6]: ~1000 µM
